Measured values from patent publication US20250302798A1, “STING INHIBITORS AND USE THEREOF” (CARMEL HAIFA UNIVERSITY ECONOMIC CORPORATION LTD., priority 2022, published 2025).
Entries after “also recorded” stand apart in the source; their conditions may differ.

Tested on: liver fibrosis
Assay: CCl4 mouse liver fibrosis model, liver Western blot
Type: in vivo, C57BL/6 mice
Conditions: CCl4 mice, 50 μM compound
Experimental: FIGS. 7A-7E include an image and graphs showing that compound 2.1 facilitates anti-fibrotic responses during the resolution of liver fibrosis. Mice were injected I.P. with the fibrosis-inducing agent CCl4 twice a week. After 28 days the mice were injected with vehicle (DMSO 0.4%), or 50 μM compound 2.1 ([…]). After 2 additional days, livers were collected and analyzed by western blot (7A) for their expression of collagen 1 and the M2 marker arginase 1, as well as β-actin (loading control). Alternatively, livers were analyzed for their mRNA expression of the IFN-responsive genes Ifitml (7B) and Ifitm3 (7C), or the anti-fibrotic protein Rgs2 (7D). Liver interstitial fluids were evaluated for the anti-fibrotic cytokine IL-10 (7E) levels. Results are representative from 4 (A) or mean±SEM of 8 mice (7B-7E). One-way ANOVA, and Tukey HSD test ** P≤0.01, **** P≤0.0001.
FIGS. 9A-9E include an image of Western blot analysis and vertical bar graphs showing that compound 2.1 reduces production of fibrosis-related factors. (9A) Western blot analysis showing that treatment with compound 2.1 (c2.1) in a liver fibrosis model results in: reduced production of Collagen 1 (Col-1), and of Arginase 1, and increased production of IFN-β. (9B-9E) Vertical bar graphs showing densitometric analysis of (9A) for Col-1 (9B), Arginase-1 (9C), IFN-β (9D), and alpha smooth muscle actin (αSMA; 9E). (9B-9E) results are mean±SEM. One-way ANOVA, and Tukey HSD test * P≤0.05, ** P≤0.01.
Male C57BL/6 mice were randomly assigned to experimental groups at approximately eight weeks old. Mice were injected I.P. with CCl4 (1 ml/kg) three times a week for six weeks with 0.2 ml of a 10 percent CCl4 in corn oil. Forty-eight hours before sacrifice, the vehicle group was injected I.P. with CCL4, while the treatment group was injected with CCl4 and 50 μM of compound 2.1. Then the liver was collected in a RIPA buffer for Western blot analysis.
Protein extracts of liver tissue were separated by sodium dodecyl sulfate polyacrylamide gel electrophoresis (SDS-PAGE), transferred to PVDF membranes (Bio-Rad Laboratories, Inc.), blocked with 5% skimmed milk powder, and immunoblotted with antibodies targeting: IFN-β, arginase 1, collagen 1, or β-actin. Then, the membranes were washed, incubated with the appropriate horseradish peroxidase (HRP)-conjugated secondary antibody, and developed using WesternBright™ ECL (Advansta Inc). Band density was quantified with FIJI ImageJ software.

Compound: c1ccc(CSc2nnc(CCCCCCCCc3nnc(SCc4ccccc4)o3)o2)cc1 [Compound 2.1, 2-(benzylsulfanyl)-5-{8-[5-(benzylsulfanyl)-1,3,4-oxadiazol-2-yl]octyl}-1,3,4-oxadiazole]
- Production of fibrosis-related factors: reduces
- Production of Arginase 1 in liver (Western blot): reduction; also recorded: reduced
- Production of Collagen 1 in liver (Western blot): reduction; also recorded: reduced
- Production of IFN-β in liver (Western blot): elevated production; also recorded: increased
- Anti-fibrotic responses during the resolution of liver fibrosis (livers after 2 days): facilitates
